In PubChem BioAssay AID2060894 (Molecular Pharmacology Branch, DTP, NCI, 2025):
pIC50: −log10 of the molar value.

Tested on: K12877-001-R-J1-PDC complex spheroid viability
Assay: Anticancer human tumor K12877-001-R-J1-PDC patient-derived lung adenocarcinoma cell line growth inhibition [RAS]
Conditions: for pIC50: curve of first compound; for viability, T/C: stronger effect = lower value
Summary of the method: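 Multi-cell-type spheroids: tumor cells plus HUVEC endothelial cells and mesenchymal stem cells. RAS-pathway inhibitors were combined with targeted agents, each dosed in half-log steps down from clinical Cmax, or from 10 microM when Cmax was unknown.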
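Also: spheroids exposed to agents for one week before readout.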
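For viability, T/C in this document: tumour cells co-cultured with HUVEC and mesenchymal stem cells in spheroids.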

CCc1c2c(nc3ccc(O)cc13)-c1cc3c(c(=O)n1C2)COC(=O)[C@]3(O)CC + C#Cc1c(F)ccc2cc(O)cc(-c3ncc4c(N5CC6CCC(C5)N6)nc(OCC56CCCN5CC(F)C6)nc4c3F)c12
pIC50 (second compound 0.0316 µM): 8.32
pIC50 (second compound 0.1 µM): 8.27
pIC50 (second compound 0.316 µM): 8.28
pIC50 (second compound 1 µM): 8.26
pIC50 (second compound 3.16 µM): 8.27
pIC50 (second compound 10 µM): 8.32
viability, T/C (second compound 0.0316 µM, first compound 0.000949 µM): 109%
viability, T/C (second compound 0.0316 µM, first compound 0.003 µM): 77.1%
viability, T/C (second compound 0.0316 µM, first compound 0.00949 µM): 10.3%
viability, T/C (second compound 0.0316 µM, first compound 0.03 µM): 4.77%
viability, T/C (second compound 0.0316 µM, first compound 0.0949 µM): 2.24%
viability, T/C (second compound 0.0316 µM, first compound 0.3 µM): 0.94%
viability, T/C (second compound 0.1 µM, first compound 0.000949 µM): 107%
viability, T/C (second compound 0.1 µM, first compound 0.003 µM): 89%
viability, T/C (second compound 0.1 µM, first compound 0.00949 µM): 12.3%
viability, T/C (second compound 0.1 µM, first compound 0.03 µM): 4.96%
viability, T/C (second compound 0.1 µM, first compound 0.0949 µM): 2.8%
viability, T/C (second compound 0.1 µM, first compound 0.3 µM): 1.27%
viability, T/C (second compound 0.316 µM, first compound 0.000949 µM): 89.3%
viability, T/C (second compound 0.316 µM, first compound 0.003 µM): 87.6%
viability, T/C (second compound 0.316 µM, first compound 0.00949 µM): 11.5%
viability, T/C (second compound 0.316 µM, first compound 0.03 µM): 4.86%
viability, T/C (second compound 0.316 µM, first compound 0.0949 µM): 2.49%
viability, T/C (second compound 0.316 µM, first compound 0.3 µM): 1.48%
viability, T/C (second compound 1 µM, first compound 0.000949 µM): 86.5%
viability, T/C (second compound 1 µM, first compound 0.003 µM): 99.4%
viability, T/C (second compound 1 µM, first compound 0.00949 µM): 11.7%
viability, T/C (second compound 1 µM, first compound 0.03 µM): 9.22%
viability, T/C (second compound 1 µM, first compound 0.0949 µM): 2.66%
viability, T/C (second compound 1 µM, first compound 0.3 µM): 1.23%
viability, T/C (second compound 3.16 µM, first compound 0.000949 µM): 95%
viability, T/C (second compound 3.16 µM, first compound 0.003 µM): 85.9%
viability, T/C (second compound 3.16 µM, first compound 0.00949 µM): 14.4%
viability, T/C (second compound 3.16 µM, first compound 0.03 µM): 7.59%
viability, T/C (second compound 3.16 µM, first compound 0.0949 µM): 3.16%
viability, T/C (second compound 3.16 µM, first compound 0.3 µM): 2.37%
viability, T/C (second compound 10 µM, first compound 0.000949 µM): 82.9%
viability, T/C (second compound 10 µM, first compound 0.003 µM): 75.4%
viability, T/C (second compound 10 µM, first compound 0.00949 µM): 11.4%
viability, T/C (second compound 10 µM, first compound 0.03 µM): 5.12%
viability, T/C (second compound 10 µM, first compound 0.0949 µM): 4.3%
viability, T/C (second compound 10 µM, first compound 0.3 µM): 1.89%

CC(C)n1nc(-c2ccc3oc(N)nc3c2)c2c(N)ncnc21 + C=CC(=O)N1CCN(c2nc(OCC3CCCN3C)nc3c(F)c(-c4nc(N)cc(C)c4C(F)(F)F)c(Cl)cc23)C(C)C1
pIC50 (second compound 0.00316 µM): 7.70
pIC50 (second compound 0.01 µM): 7.69
pIC50 (second compound 0.0316 µM): 7.76
pIC50 (second compound 0.1 µM): 7.81
pIC50 (second compound 0.316 µM): 7.85
pIC50 (second compound 1 µM): 7.79
viability, T/C (second compound 0.00316 µM, first compound 0.000316 µM): 97.8%
viability, T/C (second compound 0.00316 µM, first compound 0.001 µM): 98.3%
viability, T/C (second compound 0.00316 µM, first compound 0.00316 µM): 90.6%
viability, T/C (second compound 0.00316 µM, first compound 0.01 µM): 73.3%
viability, T/C (second compound 0.00316 µM, first compound 0.0316 µM): 34.9%
viability, T/C (second compound 0.00316 µM, first compound 0.1 µM): 17.7%
viability, T/C (second compound 0.01 µM, first compound 0.000316 µM): 88.9%
viability, T/C (second compound 0.01 µM, first compound 0.001 µM): 89.2%
viability, T/C (second compound 0.01 µM, first compound 0.00316 µM): 81.8%
viability, T/C (second compound 0.01 µM, first compound 0.01 µM): 79.3%
viability, T/C (second compound 0.01 µM, first compound 0.0316 µM): 32.1%
viability, T/C (second compound 0.01 µM, first compound 0.1 µM): 15.2%
viability, T/C (second compound 0.0316 µM, first compound 0.000316 µM): 83.8%
viability, T/C (second compound 0.0316 µM, first compound 0.001 µM): 74.4%
viability, T/C (second compound 0.0316 µM, first compound 0.00316 µM): 78.4%
viability, T/C (second compound 0.0316 µM, first compound 0.01 µM): 71.4%
viability, T/C (second compound 0.0316 µM, first compound 0.0316 µM): 27.1%
viability, T/C (second compound 0.0316 µM, first compound 0.1 µM): 14.4%
viability, T/C (second compound 0.1 µM, first compound 0.000316 µM): 75.6%
viability, T/C (second compound 0.1 µM, first compound 0.001 µM): 78.5%
viability, T/C (second compound 0.1 µM, first compound 0.00316 µM): 73.9%
viability, T/C (second compound 0.1 µM, first compound 0.01 µM): 65.5%
viability, T/C (second compound 0.1 µM, first compound 0.0316 µM): 24.7%
viability, T/C (second compound 0.1 µM, first compound 0.1 µM): 14.5%
viability, T/C (second compound 0.316 µM, first compound 0.000316 µM): 82.9%
viability, T/C (second compound 0.316 µM, first compound 0.001 µM): 70%
viability, T/C (second compound 0.316 µM, first compound 0.00316 µM): 70.9%
viability, T/C (second compound 0.316 µM, first compound 0.01 µM): 61.6%
viability, T/C (second compound 0.316 µM, first compound 0.0316 µM): 25.5%
viability, T/C (second compound 0.316 µM, first compound 0.1 µM): 14.6%
viability, T/C (second compound 1 µM, first compound 0.000316 µM): 72.6%
viability, T/C (second compound 1 µM, first compound 0.001 µM): 77.8%
viability, T/C (second compound 1 µM, first compound 0.00316 µM): 84.1%
viability, T/C (second compound 1 µM, first compound 0.01 µM): 68.3%
viability, T/C (second compound 1 µM, first compound 0.0316 µM): 25.2%
viability, T/C (second compound 1 µM, first compound 0.1 µM): 14.4%
